{"source": "PubChem BioAssay AID857", "about": "(Vanderbilt High Throughput Screening Facility, 2007)", "note": "Activity calls are given as the source filed them.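 How the source made its calls: active means a full or partial dose-response curve in at least two of three replicate runs; inactive means the rest.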"}
{"molecular_target": "D(1B) dopamine receptor (Homo sapiens) (UniProt P21918)", "sequence (P21918 whole entry, looked up)": "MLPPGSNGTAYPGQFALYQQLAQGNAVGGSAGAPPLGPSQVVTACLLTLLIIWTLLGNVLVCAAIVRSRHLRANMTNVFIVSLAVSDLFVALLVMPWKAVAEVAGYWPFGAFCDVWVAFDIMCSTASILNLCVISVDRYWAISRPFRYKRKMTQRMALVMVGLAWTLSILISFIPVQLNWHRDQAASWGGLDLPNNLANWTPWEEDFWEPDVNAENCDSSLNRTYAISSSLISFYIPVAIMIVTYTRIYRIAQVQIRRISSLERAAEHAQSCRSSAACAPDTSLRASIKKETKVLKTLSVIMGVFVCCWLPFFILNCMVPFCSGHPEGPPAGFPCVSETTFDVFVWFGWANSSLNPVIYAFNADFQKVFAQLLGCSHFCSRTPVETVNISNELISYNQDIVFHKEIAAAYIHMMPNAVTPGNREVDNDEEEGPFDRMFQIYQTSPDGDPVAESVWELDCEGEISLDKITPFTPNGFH", "assay": "D5 receptor allosteric modulators, concentration-response – cell-based, HEK293, CRE-luciferase, luminescence, EC30 dopamine, selectivity assay for D1 allosteric modulator project, dose response (AID 857);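 further: HEK 293 cells expressing human D5 with a CRE-driven luciferase reporter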", "units": {"EC50": "µM"}}
{"smiles": "CC(C)Cn1c(=O)c2c(c3ccccc31)OC(C)C(=O)N2", "note": "(stereo not given)", "outcome": "inactive"}
{"smiles": "CCn1nc(C(=O)NC2=NCCS2)c2ccccc2c1=O", "outcome": "inactive"}
{"smiles": "Cn1c(SCc2ccon2)nc2ccccc2c1=O", "outcome": "inactive"}
{"smiles": "CC1(C)Cc2c(C#N)c(NC3CCCCC3)nc(-c3ccco3)c2CO1", "outcome": "inactive"}
{"smiles": "CCSC(C)CC1C/C(=N/O)c2c(CC)noc2C1", "note": "(stereo not given)", "outcome": "inactive"}
{"smiles": "Cc1nc(-c2ccc(S(=O)(=O)N3CCCCCC3)cc2)cs1", "outcome": "inactive"}
{"smiles": "c1ccc2c(c1)CCCN2c1nc2ccccc2n2cnnc12", "outcome": "inactive"}
{"smiles": "Cn1cnc2c1c(=O)n(Cc1ccc(F)cc1Cl)c(=O)n2C", "outcome": "inactive"}
{"smiles": "O=C1CC(c2ccsc2)c2cc3c(cc2N1)OCCO3", "note": "(stereo not given)", "outcome": "inactive"}
{"smiles": "COCCNC(=O)c1c(NC(=O)c2ccco2)n(Cc2ccccc2)c2nc3ccccc3nc12", "outcome": "inactive"}
{"smiles": "Cc1noc(C)c1S(=O)(=O)N1CCCC(C(=O)NCc2ccccn2)C1", "note": "(stereo not given)", "outcome": "inactive"}
{"smiles": "CSC1=NCCN1C(=O)c1ccc(Br)o1", "outcome": "inactive"}
{"smiles": "N#Cc1ccc(-c2ccco2)nc1SCc1ccccc1", "outcome": "inactive"}
{"smiles": "COc1cccc(-c2nn3c(-c4cc(C)[nH]n4)nnc3s2)c1", "outcome": "inactive"}
{"smiles": "c1csc(-c2nn3c(Cn4nnc5ccccc54)nnc3s2)c1", "outcome": "inactive"}
{"smiles": "CCOC(=O)c1c(C)oc2c1c(C=NCc1ccccn1)c(O)c1ccccc12", "outcome": "inactive"}
{"smiles": "CCCn1c(=O)c2ccccc2n2c(SCc3nc4ccccc4s3)nnc12", "outcome": "inactive"}
{"smiles": "COc1ccc2cc3c(N)nn(C(=O)Cc4ccccc4OC)c3nc2c1", "EC50": 0.635}
{"smiles": "COC(=O)/C(=C1/Oc2cc3c(cc2S1)OCO3)C(F)(F)F", "outcome": "inactive"}
{"smiles": "C=CCn1c2ccccc2c2nnc(SCC(=O)NC(C(=O)OC)C(C)C)nc21", "note": "(stereo not given)", "outcome": "inactive"}
{"smiles": "CC(C)Cn1c(-c2cccs2)nc2nc3ccccc3nc21", "outcome": "inactive"}
{"smiles": "CSc1oc(-c2ccco2)nc1S(=O)(=O)c1ccc(F)cc1", "outcome": "inactive"}
{"smiles": "Cc1ccc(-c2cc(-c3ccc(C)o3)nc(N)c2C#N)cc1", "outcome": "inactive"}
{"smiles": "CC(=O)N=c1sc2nc3ccccc3nc2n1N(C(C)=O)C(C)=O", "outcome": "inactive"}
{"smiles": "CCn1nc(C(=O)OCC(=O)N2c3ccccc3CC2C)c2ccccc2c1=O", "note": "(stereo not given)", "outcome": "inactive"}
{"smiles": "COc1ccc(C2CC(c3ccc(Cl)cc3Cl)Nc3nc(N)nn32)cc1", "note": "(stereo not given)", "outcome": "inactive"}
{"smiles": "CS(=O)(=O)c1sc2nc(-c3cccs3)cc(-c3ccccc3)c2c1N", "outcome": "inactive"}
{"smiles": "CCOC(=O)c1oc2ccc(S(=O)(=O)N3CCOCC3)cc2c1C", "outcome": "inactive"}
{"smiles": "CCc1ccc2[nH]c(=O)c(CN(Cc3nnnn3C3CCCC3)C3CCCCC3)cc2c1", "outcome": "inactive"}
{"smiles": "CCn1c2ccccc2c2nc3ccccc3nc21", "outcome": "inactive"}
{"smiles": "N#Cc1cc2ccccc2nc1SCC(=O)Nc1ccc(S(=O)(=O)N2CCCC2)cc1", "outcome": "inactive"}
{"smiles": "CC(C)OC(=O)CSc1nnc(-c2cnccn2)n1-c1ccc(Cl)cc1", "outcome": "inactive"}
{"smiles": "O=C1C(Cl)=C(NCC2CCCO2)C(=O)N1Cc1ccccc1", "note": "(stereo not given)", "outcome": "inactive"}
{"smiles": "CSC1=NCCN1C(=O)Cc1cccs1", "outcome": "inactive"}
{"smiles": "CC(=NCc1cccnc1)C1=C(O)c2ccccc2C1=O", "outcome": "inactive"}
{"smiles": "Cc1cc(-n2nc(C)cc2C)nc(NS(=O)(=O)c2ccccc2)n1", "outcome": "inactive"}
{"smiles": "COC(=O)c1ccccc1NC(=O)c1ccc2c(c1)OCCO2", "outcome": "inactive"}
{"smiles": "COc1ccc(C2=NOC(C(=O)NC3CCCCC3)C2)cc1OC", "note": "(stereo not given)", "outcome": "inactive"}
{"smiles": "Cc1ccc(CCNS(=O)(=O)c2cnc[nH]2)cc1", "outcome": "inactive"}
{"smiles": "O=C(CC1SC(=NC2CCCCC2)NC1=O)Nc1ccccc1", "note": "(stereo not given)", "outcome": "inactive"}
{"smiles": "Cc1sc2nc(CN3CCN(S(=O)(=O)c4cccc5nonc45)CC3)[nH]c(=O)c2c1C", "outcome": "inactive"}
{"smiles": "CCC(=O)NC(=Nc1nc2ccccc2s1)NC(=O)CC", "EC50": 1.9}
{"smiles": "C/C(=C\\C(=O)c1ccccc1)Nc1cccc(O)c1", "outcome": "inactive"}
{"smiles": "COc1ccc(CCN(C)C(=O)C2CCCN(Cc3ccc(OC)c(OC)c3)C2)cc1OC", "note": "(stereo not given)", "outcome": "inactive"}
{"smiles": "COc1ccc(C(=O)Nc2nnc(Cc3cccs3)s2)cc1OC", "outcome": "inactive"}
